According to patent publication US20030159953A1, “Carbohydrate medical solution and sulphite stabilisator in a multiple compartment container and use thereof” (priority 2003, published 2003):

Assays:
[1] = Determination of acetaldehyde and formaldehyde (HPLC, 2,4-DNPH derivatives); type: physicochemical; conditions: Example 5: 1.5% glucose solution, sodium bisulphite 0, 0.5, 1 mM added before or after heat sterilisation 121° C. 1 hour
Method: Determination of acetaldehyde and formaldehyde: The samples for the determination of acetaldehyde were diluted 20 times to a final volume of 4 ml, prior to analysis. Acetaldehyde was prepared as hydrazone derivatives using 2,4-DNPH as derivative reagent. The standards were prepared in range 1.1-11.4 μM acetaldehyde, and 1.7-16.7 μM formaldehyde. Standards and samples were prepared by adding 2 ml 0.08% (weight/volume) 2,4-DNPH to 4 ml of each sample. The sample were concentrated on a solid phase extraction C18 column (Bond Elut LRC 200 mg/3 ml) and after rinsing with water, eluted with 1.6 ml acetonitrile. The analytical column was a Supelco C18 column (5 μm, 15 cm×4,6 mm). The elution of the substances was performed at constant flow of 1.7 ml/min by using a linear gradient of acetonitrile/water. The percentage acetonitrile/water (volume/volume) was initially 35/65 and at the gradient stop 12 minutes later 80/20. The wavelenght was set at 240 nm and the injected volume was 20 μl. The limit of quantification was for acetaldehyde. 1.1 μM. And for formaldehyde 1.7 μM.

[2] = tested on: mouse fibroblasts cells L-929; test: In vitro assay for cytotoxicity (inhibition of cell growth, ICG); type: cell-based
Method: Medical solutions used for peritoneal dialysis were mixed with one part cell growth medium and 10% (volume/volume) fetal calf serum was added (Wieslander et al., 1991, Kidney Int. 40:77-79). Basal cytotoxicity of medical solution used for peritoneal dialysis were determined on mouse fibroblasts cells L-929 (CCL-1; ATTC, Rockville, Md., USA) as described earlier (Wieslander et al. 1993, Advances in Peritoneal Dialys, 9:31-35) and expressed as inhibition of cellgrowth (ICG).

For `O=S([O-])O.[Na+]` [sodium bisulphite], the “level of acetaldehyde in sterilised solution” value [1] was “decreased levels”, the “level of formaldehyde in sterilised solution” value [1] was “decreased levels” and the “inhibition of cell growth (ICG)” value ([2]; Example 3: bisulphite in glucose compartment, 0-0.5 mM in final solution, 4% glucose, sterilised 121° C. 1 hour, mixed post sterilisation) was “decrease of the ICG value”. For the same molecule, the “inhibition of cell growth (ICG)” value ([2]; Example 4: sulphite in electrolyte compartment, concentrations in final solution as in example 3, 4% glucose, sterilised 121° C. 1 hour) was “decrease of the ICG value” and the “inhibition of cell growth (ICG)” value ([2]; Example 5: 1.5% glucose solution, sodium bisulphite 0, 0.5, 1 mM added before or after heat sterilisation 121° C. 1 hour) was “decrease of the ICG value”.
